Data: paper PMC5352749, “Novel insights into biosynthesis and uptake of rhamnolipids and their precursors” (Applied Microbiology and Biotechnology, 2016)

Experiments:
RhlC = target: T1, RhlC (Pseudomonas aeruginosa, UniProt Q9I4K5); assay: HPLC-UV of di-rhamnolipids formed by recombinant P. putida fed mono-rhamnolipids; type: cell-based; details: mono-rhamnolipid conditioned LB medium (congener mixture, C10-C10 predominant and quantified); 30 °C, 24 h; cellular dTDP-L-rhamnose as donor
T1 construct: full-length untagged gene in pVLT33 (native RBS), expressed alone in P. putida KT2440

RhlB = target: T2, RhlB (Pseudomonas aeruginosa, UniProt Q9HYD1); assay: HPLC-UV of mono-rhamnolipids formed by recombinant P. putida fed HAA; type: cell-based; details: HAA-containing conditioned LB medium (congener mixture, C10-C10 quantified); 30 °C, 24 h; cellular dTDP-L-rhamnose as donor
T2 construct: full-length untagged gene in pVLT33 (native RBS), expressed alone in P. putida KT2440
T2 sequence (Q9HYD1 entry or part of it): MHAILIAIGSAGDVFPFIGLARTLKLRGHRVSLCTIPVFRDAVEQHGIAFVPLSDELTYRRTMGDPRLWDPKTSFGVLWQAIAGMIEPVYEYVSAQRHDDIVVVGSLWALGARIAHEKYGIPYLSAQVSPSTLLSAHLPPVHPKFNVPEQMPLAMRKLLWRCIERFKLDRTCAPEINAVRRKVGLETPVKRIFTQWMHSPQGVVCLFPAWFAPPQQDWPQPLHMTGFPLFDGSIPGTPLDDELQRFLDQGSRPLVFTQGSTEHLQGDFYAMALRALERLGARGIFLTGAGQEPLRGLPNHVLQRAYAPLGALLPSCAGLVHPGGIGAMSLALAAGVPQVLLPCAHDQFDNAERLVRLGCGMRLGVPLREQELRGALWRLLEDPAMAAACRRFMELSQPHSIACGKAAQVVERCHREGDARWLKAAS

T1 sequence (Q9I4K5 entry or part of it): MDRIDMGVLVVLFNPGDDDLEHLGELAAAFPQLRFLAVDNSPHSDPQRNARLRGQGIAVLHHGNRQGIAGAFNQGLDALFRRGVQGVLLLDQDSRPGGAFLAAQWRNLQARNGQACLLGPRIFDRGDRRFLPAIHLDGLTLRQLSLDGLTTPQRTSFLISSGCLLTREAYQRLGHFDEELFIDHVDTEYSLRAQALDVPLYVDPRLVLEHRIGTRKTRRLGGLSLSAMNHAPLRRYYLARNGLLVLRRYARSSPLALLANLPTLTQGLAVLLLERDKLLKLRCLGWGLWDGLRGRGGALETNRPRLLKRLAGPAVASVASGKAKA

SMILES: CCCCCCC[C@H](CC(=O)O)OC(=O)C[C@@H](CCCCCCC)O[C@@H]1O[C@@H](C)[C@H](O)[C@@H](O)[C@H]1O [Rha-C10-C10]
- HPLC-UV of di-rhamnolipids formed by recombinant P. putida fed mono-rhamnolipids (RhlC): extracellularly provided mono-rhamnolipids were converted to di-rhamnolipids by RhlC in recombinant P. putida

SMILES: CCCCCCCC(O)CC(=O)OC(CCCCCCC)CC(=O)O (centres unmarked) [C10-C10 (HAA)]
- HPLC-UV of mono-rhamnolipids formed by recombinant P. putida fed HAA (RhlB): HAAs synthesized by P. putida and provided in the form of the conditioned medium serve
